These results are taken from patent US9409866B2, “Pyridine-2-amides useful as CB2 agonists” (Hoffmann-La Roche Inc., priority 2012, dated 2016).

In experiment [1] the target is human CB2 receptors (Homo sapiens (Human), UniProt P34972). The experiment is described as follows: functional cAMP assay, CHO cells expressing human CB2. Format: cell-based. An outline of the steps:
(§1)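 CHO-hCB1/hCB2 cells, KRB + 1 mM IBMX preincubation 30 min 30 °C; cpd 30 min 30 °C; lysis + TR-FRET cAMP detection, 2 h RT; cAMP from std curve; EC50.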
(In general: Changes in cAMP serve as a functional read-out for many G protein-coupled receptors.)

For experiment [2], the target named is human CB1 receptors (Homo sapiens (Human), UniProt P21554). Nature of the experiment: functional cAMP assay, CHO cells expressing human CB1. The format is cell-based. A digest of the protocol: as §1
[3] abbreviates: functional cAMP assay, CHO cells expressing human CB1; read-out: Human CB1 EC50.
Setting [4] is: read-out: Human CB1 EC50; functional cAMP assay, CHO cells expressing human CB1.

Structures are written as SMILES. Like-named read-outs stand apart in the source and are kept apart here.

Chain of human CB2 receptors (P34972 whole entry): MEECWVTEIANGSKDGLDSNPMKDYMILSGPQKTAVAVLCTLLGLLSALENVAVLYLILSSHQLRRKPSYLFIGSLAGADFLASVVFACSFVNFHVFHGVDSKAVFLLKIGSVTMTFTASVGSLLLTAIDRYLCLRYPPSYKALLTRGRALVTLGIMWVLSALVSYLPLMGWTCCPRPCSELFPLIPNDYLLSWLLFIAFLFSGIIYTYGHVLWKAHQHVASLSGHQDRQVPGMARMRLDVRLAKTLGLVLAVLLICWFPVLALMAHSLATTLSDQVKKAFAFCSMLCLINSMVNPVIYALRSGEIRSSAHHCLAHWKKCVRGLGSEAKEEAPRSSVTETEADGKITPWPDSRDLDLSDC
Chain of human CB1 receptors (P21554 whole entry): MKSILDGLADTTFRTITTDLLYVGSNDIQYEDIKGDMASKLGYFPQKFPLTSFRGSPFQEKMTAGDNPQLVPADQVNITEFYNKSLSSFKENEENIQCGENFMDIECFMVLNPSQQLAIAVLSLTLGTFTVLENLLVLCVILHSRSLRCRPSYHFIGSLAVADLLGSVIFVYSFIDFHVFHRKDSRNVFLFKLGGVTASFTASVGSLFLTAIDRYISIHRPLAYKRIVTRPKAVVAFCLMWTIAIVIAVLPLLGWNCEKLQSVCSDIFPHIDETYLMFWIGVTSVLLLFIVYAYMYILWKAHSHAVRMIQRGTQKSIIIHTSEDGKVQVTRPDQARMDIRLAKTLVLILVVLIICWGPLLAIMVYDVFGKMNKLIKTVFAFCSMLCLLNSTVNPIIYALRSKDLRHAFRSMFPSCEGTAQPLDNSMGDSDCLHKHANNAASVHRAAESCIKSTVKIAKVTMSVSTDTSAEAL

A word on the EC50: it is the concentration that produces a half-maximal response. With `O=C(N[C@@H](c1cccnc1)C(F)(F)F)c1cc(OCC2CC2)c(Cl)cn1` [Example 22, 5-Chloro-4-cyclopropylmethoxy-pyridine-2-carboxylic acid ((S)-2,2,2-trifluoro-1-pyridin-3-yl-ethyl)-amide], the concentration for a half-maximal effect (EC50) in experiment [1] (read-out: Human CB2 EC50) was 0.0057 µM; in experiment [2] (setting [3]), more than 10 µM.
For `C[C@H](Oc1cc(C(=O)NC(c2noc(N)n2)C(C)(C)C)ncc1C1CC1)C(F)(F)F` (stereo partly drawn) [Example 213, N-[1-(5-amino-1,2,4-oxadiazol-3-yl)-2,2-dimethylpropyl]-5-cyclopropyl-4-[(2S)-1,1,1-trifluoropropan-2-yl]oxypyridine-2-carboxamide] the same measures were 0.0111 µM and more than 10 µM.
Take `Cc1nc(C(C)(CS(C)(=O)=O)NC(=O)c2cc(O[C@@H](C)C(F)(F)F)c(C3(F)CCC3)cn2)no1` (stereo partly drawn) [Example 130, 5-(1-fluorocyclobutyl)-N-[2-(5-methyl-1,2,4-oxadiazol-3-yl)-1-methylsulfonylpropan-2-yl]-4-[(2S)-1,1,1-trifluoropropan-2-yl]oxypyridine-2-carboxamide]: the concentration giving a half-maximal response (EC50) in experiment [1] (read-out: Human CB2 EC50) is 0.0234 µM; in experiment [2] (setting [3]) it was more than 10 µM.
Consider `Cc1nc(C(C)(CS(C)(=O)=O)NC(=O)c2cc(O[C@@H](C)C(F)(F)F)c(C3CCC3)cn2)no1` (stereo partly drawn) [Example 111, 5-Cyclobutyl-4-((S)-2,2,2-trifluoro-1-methyl-ethoxy)-pyridine-2-carboxylic acid [2-methanesulfonyl-1-methyl-1-(5-methyl-[1,2,4]oxadiazol-3-yl)-ethyl]-amide], for which the EC50 in experiment [1] (read-out: Human CB2 EC50) came out at 0.003 µM; in experiment [2] (setting [3]) it was 0.43 µM.
On to `NC(=O)CC1(NC(=O)c2cc(OCC3CC3)c(N3CC(F)(F)C3)cn2)COC1` [Example 222, N-[3-(2-amino-2-oxoethyl)oxetan-3-yl]-4-(cyclopropylmethoxy)-5-(3,3-difluoroazetidin-1-yl)pyridine-2-carboxamide], for which the EC50 was 0.0467 µM in experiment [1] (read-out: Human CB2 EC50) and more than 10 µM in experiment [2] (setting [3]).
In the case of `Cc1nc(C(C)(CS(C)(=O)=O)NC(=O)c2cc(OCC(F)(F)F)c(C3CC3)cn2)no1` (centres unmarked) [Example 84, 5-Cyclopropyl-4-(2,2,2-trifluoro-ethoxy)-pyridine-2-carboxylic acid [2-methanesulfonyl-1-methyl-1-(5-methyl-[1,2,4]oxadiazol-3-yl)-ethyl]-amide], the 50% effective concentration (EC50) is 0.0488 µM in experiment [1] (read-out: Human CB2 EC50) and more than 10 µM in experiment [2] (setting [3]).
On to `O=C(NC(c1ccccn1)C(F)(F)F)c1cc(OCC2CC2)c(C2CC2)cn1` (centres unmarked) [Example 46, 5-Cyclopropyl-4-cyclopropylmethoxy-pyridine-2-carboxylic acid (2,2,2-trifluoro-1-pyridin-2-yl-ethyl)-amide], for which the EC50 is 0.0067 µM in experiment [1] (read-out: Human CB2 EC50) and more than 10 µM in experiment [2] (setting [3]).
On to `Cc1nc(C(C)(CS(C)(=O)=O)NC(=O)c2cc(OCC(F)(F)F)c(C3(F)COC3)cn2)no1` (single isomer, unassigned) [Example 133, 5-(3-fluorooxetan-3-yl)-N-[2-(5-methyl-1,2,4-oxadiazol-3-yl)-1-methylsulfonylpropan-2-yl]-4-(2,2,2-trifluoroethoxy)pyridine-2-carboxamide], for which the EC50 in experiment [1] (read-out: Human CB2 EC50) was 0.568 µM; in experiment [2] (setting [4]) it was more than 10 µM.
With `Cc1nc(C(C)(CS(C)(=O)=O)NC(=O)c2cc(OCCF)c(C3CC3)cn2)no1` (single isomer, unassigned) [Example 280, 5-cyclopropyl-4-(2-fluoroethoxy)-N-[2-(5-methyl-1,2,4-oxadiazol-3-yl)-1-methylsulfonylpropan-2-yl]pyridine-2-carboxamide], the EC50 in experiment [1] (Human CB2 EC50 (uM)) was 0.0786 µM; in experiment [2] (setting [4]) it was more than 10 µM.
On to `O=C(NC1(c2nccs2)COC1)c1cc(OCC2CC2)c(Cl)cn1` [Example 32, 5-Chloro-4-cyclopropylmethoxy-pyridine-2-carboxylic acid (3-thiazol-2-yl-oxetan-3-yl)-amide], for which the half-maximal effective concentration (EC50) is 0.0746 µM in experiment [1] (read-out: Human CB2 EC50) and more than 10 µM in experiment [2] (setting [3]).
Taken in the same sequence, the figures for `CCC(CC)(NC(=O)c1cc(OCC2(C)COC2)c(C2CC2)cn1)C(=O)NCCCF` [Example 234, 5-cyclopropyl-N-[3-(3-fluoropropylcarbamoyl)pentan-3-yl]-4-[(3-methyloxetan-3-yl)methoxy]pyridine-2-carboxamide] were 0.455 µM and more than 10 µM.
In the case of `Cc1nc(C(C)(CS(C)(=O)=O)NC(=O)c2cc(O[C@@H](C)C(F)(F)F)c(C3CCC3)cn2)no1` (stereo partly drawn) [Example 118, 5-cyclobutyl-N-[2-(5-methyl-1,2,4-oxadiazol-3-yl)-1-methylsulfonylpropan-2-yl]-4-[(2S)-1,1,1-trifluoropropan-2-yl]oxypyridine-2-carboxamide], the EC50 in experiment [1] (read-out: Human CB2 EC50) is 0.0017 µM; in experiment [2] (setting [3]), more than 10 µM.
For `Cc1nc(C(C)(CC2CC2)NC(=O)c2cc(OCC(F)(F)F)c(Cl)cn2)no1` (centres unmarked) [Example 89, 5-Chloro-4-(2,2,2-trifluoro-ethoxy)-pyridine-2-carboxylic acid [2-cyclopropyl-1-methyl-1-(5-methyl-[1,2,4]oxadiazol-3-yl)-ethyl]-amide], the figures for the EC50 in experiment [1] (read-out: Human CB2 EC50) and in experiment [2] (setting [3]) were 0.0483 µM and more than 10 µM, respectively.
Turning to `CNC(=O)C(C)(NC(=O)c1cc(OCC(F)(F)F)c(C2CC2)cn1)c1noc(C)n1` (single isomer, unassigned) [Example 188, 5-cyclopropyl-N-[1-(methylamino)-2-(5-methyl-1,2,4-oxadiazol-3-yl)-1-oxopropan-2-yl]-4-(2,2,2-trifluoroethoxy)pyridine-2-carboxamide], the results for the EC50 in experiment [1] (Human CB2 EC50 (uM)) and in experiment [2] (setting [4]) were 0.0206 µM and more than 10 µM, respectively.
With `C[C@H](Oc1cc(C(=O)NC(C)(CC(N)=O)C2CC2)ncc1C1CC1)C(F)(F)F` (stereo partly drawn) [Example 258, N-(4-amino-2-cyclopropyl-4-oxobutan-2-yl)-5-cyclopropyl-4-[(2S)-1,1,1-trifluoropropan-2-yl]oxypyridine-2-carboxamide], the values for the EC50 in experiment [1] (read-out: Human CB2 EC50) and in experiment [2] (setting [3]) were 0.013 µM and more than 10 µM, respectively.
Turning to `CNC(=O)C(C)(NC(=O)c1cc(OCC(F)(F)F)c(C2CC2)cn1)c1noc(C)n1` (single isomer, unassigned) [Example 187, 5-cyclopropyl-N-[1-(methylamino)-2-(5-methyl-1,2,4-oxadiazol-3-yl)-1-oxopropan-2-yl]-4-(2,2,2-trifluoroethoxy)pyridine-2-carboxamide], the EC50 in experiment [1] (Human CB2 EC50 (uM)) was 0.416 µM; in experiment [2] (Human CB1 EC50 (uM), functional cAMP assay, CHO cells expressing human CB1), more than 10 µM.
As for `Cc1nc(C(C)(NC(=O)c2cc(O[C@@H](C)C(F)(F)F)c(C3(F)COC3)cn2)C2CC2)no1` (stereo partly drawn) [Example 169, N-[1-cyclopropyl-1-(5-methyl-1,2,4-oxadiazol-3-yl)ethyl]-5-(3-fluorooxetan-3-yl)-4-[(2S)-1,1,1-trifluoropropan-2-yl]oxypyridine-2-carboxamide], the EC50 was 0.0055 µM in experiment [1] (read-out: Human CB2 EC50) and more than 10 µM in experiment [2] (setting [3]).
For `Cc1csc(C(C)(CC2CC2)NC(=O)c2cc(OCC(F)(F)F)c(C3CC3)cn2)n1` (centres unmarked) [Example 158, 5-cyclopropyl-N-[1-cyclopropyl-2-(4-methyl-1,3-thiazol-2-yl)propan-2-yl]-4-(2,2,2-trifluoroethoxy)pyridine-2-carboxamide], the values for the concentration giving a half-maximal response (EC50) in experiment [1] (read-out: Human CB2 EC50) and in experiment [2] (setting [3]) were 0.0958 µM and more than 10 µM, respectively.
For `CC(CF)Oc1cc(C(=O)NC(C)(CC(N)=O)C2CC2)ncc1C1CC1` (centres unmarked) [Example 294, N-(4-amino-2-cyclopropyl-4-oxobutan-2-yl)-5-cyclopropyl-4-(1-fluoropropan-2-yloxy)picolinamide] the same measures were 0.0006 µM and more than 10 µM.
